Drawing on patent US10307413B2, “Tetrahydro- and dihydro-isoquinoline PRMT5 inhibitors and uses thereof” (Epizyme, Inc., priority 2013, dated 2019), this text covers EC50 for 54 compounds.

Test [1] has as its system Z-138 cell line. Put plainly: Z-138 Proliferation Assay (Cell Titer Glo, 5 days). The class given is cell-based. Conditions: Homo sapiens, 120 h; Z-138 cells, 5 days; read-out: Proliferation EC50. The method in brief: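 Z-138 cells exposed 5 days at 37 °C, 5% CO2 to nine-point 3-fold dilutions (final top 20 μM, 0.2% DMSO), in triplicate. Viability read as ATP by CellTiter-Glo luminescence; IC50 from 4-parameter fit of normalized dose-response curves.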
On the technique in general: ATP-based viability assays read luminescence as a measure of living cells.

Test [2] deals with symmetric di-methyl arginine in Z-138 cells. Put plainly: Z-138 Methylation Assay (In Cell Western for symmetric di-methyl arginine and DNA content). The class given is cell-based. Conditions: Homo sapiens, read-out: ICW EC50. Summed up:
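Z-138 cells (50,000 cells/mL) treated with compound 96 h at 37 °C, then fixed and stained for symmetric di-methyl arginine (800 nm) with DRAQ5 DNA counterstain (700 nm) on Licor Odyssey.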

For `Cn1nccc1C(=O)NCC(O)CN1CCc2ccccc2C1` (stereo not drawn) [Compound 150], the EC50 in test [1] was > 20000 nM; in test [2], 101 to 1000 nM.

As for `O=C(NCC(O)CN1CCc2ccccc2C1)c1cccc(CO)c1` (stereo not drawn) [Compound 151], the EC50 was > 20000 nM in test [1] and 101 to 1000 nM in test [2].

`CC1CC(Nc2cccc(C(=O)NC[C@@H](O)CN3CCc4ccccc4C3)c2)CC(C)O1` (stereo partly drawn) [Compound 153]: the values for the EC50 in test [1] and in test [2] were 101 to 1000 nM and < 100 nM, respectively.

`O=C(NCC(O)CN1CCc2ccccc2C1)c1cccc(C2CCOC2)c1` (stereo not drawn) [Compound 154]: the EC50 in test [1] was 1000 to 10000 nM; in test [2], 101 to 1000 nM.

On to `COc1ccc2cc(C(=O)NCC(O)CN3CCc4ccccc4C3)ccc2n1` (stereo not drawn) [Compound 155], for which the EC50 in test [1] was > 20000 nM; in test [2], 1000 to 10000 nM.

As to `CC(=O)NCCN1CCN(Cc2cccc(C(=O)NCC(O)CN3CCc4ccccc4C3)c2)CC1` (stereo not drawn) [Compound 156], the EC50 in test [1] lay within 1000 to 10000 nM; in test [2], 101 to 1000 nM.

Consider `O=C(O)CN1CCN(Cc2cccc(C(=O)NCC(O)CN3CCc4ccccc4C3)c2)CC1` (stereo not drawn) [Compound 157], for which the EC50 in test [1] was > 20000 nM; in test [2] it was 1000 to 10000 nM.

In the case of `NC(=O)CCCN1CCN(Cc2cccc(C(=O)NCC(O)CN3CCc4ccccc4C3)c2)CC1` (stereo not drawn) [Compound 159], the EC50 fell in the range of 1000 to 10000 nM in test [1] and 101 to 1000 nM in test [2].

Regarding `COc1cc(CN2CCN(C)CC2)cc(C(=O)NCC(O)CN2CCc3ccccc3C2)c1` (stereo not drawn) [Compound 160], the values for the EC50 in test [1] and in test [2] were 10000 to 50000 nM and 101 to 1000 nM, respectively.

On to `CC(c1cccc(C(=O)NCC(O)CN2CCc3ccccc3C2)c1)N1CCN(C)CC1` (stereo not drawn) [Compound 161], for which the results for the EC50 in test [1] and in test [2] were 1000 to 10000 nM and < 100 nM, respectively.

`CS(=O)(=O)N1CCC(Oc2cccc(C(=O)NCC(O)CN3CCc4ccccc4C3)c2)C1` (stereo not drawn) [Compound 162]: the EC50 in test [1] is 1000 to 10000 nM; in test [2], < 100 nM.

As for `CN1CCN(Cc2ccc(C(=O)NCC(O)CN3CCc4ccccc4C3)cc2)CC1` (stereo not drawn) [Compound 163], the results for the EC50 in test [1] and in test [2] were 1000 to 10000 nM and < 100 nM, respectively.

As for `O=C(NCC(O)CN1CCc2ccccc2C1)c1cccc(N2CCS(=O)(=O)CC2)c1` (stereo not drawn) [Compound 164], the EC50 in test [1] was 1000 to 10000 nM; in test [2], < 100 nM.

`CCOC(=O)CN1CCN(Cc2cccc(C(=O)NCC(O)CN3CCc4ccccc4C3)c2)CC1` (stereo not drawn) [Compound 165]: the EC50 lay within 1000 to 10000 nM in test [1] and 101 to 1000 nM in test [2].

`O=C(NC[C@H](O)CN1CCc2ccccc2C1)c1cc(NC2COC2)ncn1` [Compound 166, (S)—N-(3-(3,4-dihydroisoquinolin-2(1H)-yl)-2-hydroxypropyl)-6-(oxetan-3-ylamino)pyrimidine-4-carboxamide]: the EC50 in test [1] was 101 to 1000 nM; in test [2], < 100 nM.

Turning to `C[C@H]1CC(Nc2cccc(C(=O)NC[C@H](O)CN3CCc4ccccc4C3)c2)CCO1` (stereo partly drawn) [Compound 167], the EC50 in test [1] is 101 to 1000 nM; in test [2], < 100 nM.

Take `C[C@@H]1CC(Nc2cccc(C(=O)NC[C@H](O)CN3CCc4ccccc4C3)c2)CCO1` (stereo partly drawn) [Compound 168]: the EC50 is 101 to 1000 nM in test [1] and < 100 nM in test [2].

As to `O=C(NCC(O)CN1CCc2ccccc2C1)c1cc(NC2CCOCC2)n[nH]1` (stereo not drawn) [Compound 169], the values for the EC50 in test [1] and in test [2] were 1000 to 10000 nM and 101 to 1000 nM, respectively.

Consider `O=C(NCC(O)CN1CCc2ccccc2C1)c1ncc[nH]1` (stereo not drawn) [Compound 170], for which the figures for the EC50 in test [1] and in test [2] were > 20000 nM and 101 to 1000 nM, respectively.

With `Cn1ccnc1C(=O)NCC(O)CN1CCc2ccccc2C1` (stereo not drawn) [Compound 171], the figures for the EC50 in test [1] and in test [2] were 1000 to 10000 nM and 101 to 1000 nM, respectively.

As for `NC(=O)CN1CCN(Cc2cccc(C(=O)NCC(O)CN3CCc4ccccc4C3)c2)CC1` (stereo not drawn) [Compound 172], the EC50 in test [1] was 1000 to 10000 nM; in test [2], < 100 nM.

With `CNC(=O)CN1CCN(Cc2cccc(C(=O)NCC(O)CN3CCc4ccccc4C3)c2)CC1` (stereo not drawn) [Compound 173], the EC50 in test [1] is 1000 to 10000 nM; in test [2] it was < 100 nM.

`CN(C)C(=O)CN1CCN(Cc2cccc(C(=O)NCC(O)CN3CCc4ccccc4C3)c2)CC1` (stereo not drawn) [Compound 174]: the EC50 in test [1] was 1000 to 10000 nM; in test [2] it was < 100 nM.

As for `CNC(=O)CCCN1CCN(Cc2cccc(C(=O)NCC(O)CN3CCc4ccccc4C3)c2)CC1` (stereo not drawn) [Compound 175], the EC50 in test [1] was 1000 to 10000 nM; in test [2], 101 to 1000 nM.

`O=C(NCC(O)CN1CCc2ccccc2C1)c1ccc(OC2CCNC2)cc1` (stereo not drawn) [Compound 176]: the results for the EC50 in test [1] and in test [2] were 1000 to 10000 nM and < 100 nM, respectively.

Turning to `CN1CCC(Oc2ccc(C(=O)NCC(O)CN3CCc4ccccc4C3)cc2)C1` (stereo not drawn) [Compound 177], the EC50 is 1000 to 10000 nM in test [1] and < 100 nM in test [2].

For the compound `CN(C)CCCOc1ccc(C(=O)NCC(O)CN2CCc3ccccc3C2)cc1` (stereo not drawn) [Compound 178], the EC50 in test [1] was 1000 to 10000 nM; in test [2] it was < 100 nM.

For `O=C(NCC(O)CN1CCc2ccccc2C1)c1ccc(N2CCS(=O)(=O)CC2)cc1` (stereo not drawn) [Compound 179], the values for the EC50 in test [1] and in test [2] were 1000 to 10000 nM and < 100 nM, respectively.

As to `O=C(NC[C@H](O)CN1CCc2ccccc2C1)c1cc(NC2CCNCC2)ncn1` [Compound 180], the figures for the EC50 in test [1] and in test [2] were 10000 to 50000 nM and 101 to 1000 nM, respectively.

For the compound `CN1CCC(Nc2cc(C(=O)NC[C@H](O)CN3CCc4ccccc4C3)ncn2)C1` (stereo partly drawn) [Compound 181], the EC50 fell in the range of 1000 to 10000 nM in test [1] and 101 to 1000 nM in test [2].

With `O=C(NC[C@H](O)CN1CCc2ccccc2C1)c1cc(NC2CCN(CC(F)(F)F)C2)ncn1` (stereo partly drawn) [Compound 182], the EC50 in test [1] was 1000 to 10000 nM; in test [2] it was < 100 nM.

For `O=C(NC[C@H](O)CN1CCc2ccccc2C1)c1cncc(OC2CCOCC2)c1` [Compound 183], the EC50 is 1000 to 10000 nM in test [1] and < 100 nM in test [2].

Turning to `O=C(NC[C@@H](O)CN1CCc2ccccc2C1)c1ccnc(NC2CCOCC2)c1` [Compound 184], the EC50 in test [1] was 1000 to 10000 nM; in test [2] it was < 100 nM.

As for `O=C(NC[C@@H](O)CN1CCc2ccccc2C1)c1cc(NC2CCOCC2)ncn1` [Compound 185], the values for the EC50 in test [1] and in test [2] were 1000 to 10000 nM and 101 to 1000 nM, respectively.

Consider `CN(C)CCN(C)c1cc(C(=O)NC[C@H](O)CN2CCc3ccccc3C2)ccn1` [Compound 186], for which the values for the EC50 in test [1] and in test [2] were 1000 to 10000 nM and < 100 nM, respectively.

Regarding `O=C(NC[C@H](O)CN1CCc2ccccc2C1)c1ccnc(NCC2CC2)c1` [Compound 187], the EC50 in test [1] is 101 to 1000 nM; in test [2] it was < 100 nM.

On to `O=C(NC[C@H](O)CN1CCc2ccccc2C1)c1ccnc(NC2CCC2)c1` [Compound 188], for which the EC50 in test [1] and in test [2] was < 100 nM each time.

As to `O=C(NC[C@H](O)CN1CCc2ccccc2C1)c1ccnc(NCc2ccncc2)c1` [Compound 189], the EC50 is 101 to 1000 nM in test [1] and < 100 nM in test [2].

Turning to `O=C(NC[C@H](O)CN1CCc2ccccc2C1)c1ccnc(NCc2cccnc2)c1` [Compound 190], the EC50 was 101 to 1000 nM in test [1] and < 100 nM in test [2].

As for `O=C(NC[C@H](O)CN1CCc2ccccc2C1)c1ccnc(NCc2ccccn2)c1` [Compound 191], the EC50 was 101 to 1000 nM in test [1] and < 100 nM in test [2].

For `O=C(NC[C@H](O)CN1CCc2ccccc2C1)c1ccnc(NC2CCOCC2)c1` [Compound 192], the EC50 in test [1] was 101 to 1000 nM; in test [2] it was < 100 nM.

As to `O=C(NC[C@H](O)CN1CCc2ccccc2C1)c1cc(NC2CCOCC2)ncn1` [Compound 193], the EC50 in test [1] was 101 to 1000 nM; in test [2], < 100 nM.

Turning to `CN(C)C(=O)CCCN1CCN(Cc2cccc(C(=O)NCC(O)CN3CCc4ccccc4C3)c2)CC1` (stereo not drawn) [Compound 194], the EC50 in test [1] was 1000 to 10000 nM; in test [2], 101 to 1000 nM.

In the case of `CN(CC(N)=O)Cc1cccc(C(=O)NCC(O)CN2CCc3ccccc3C2)c1` (stereo not drawn) [Compound 195], the values for the EC50 in test [1] and in test [2] were 10000 to 50000 nM and 101 to 1000 nM, respectively.

As to `CC(C)N1CCC(Oc2ccc(C(=O)NCC(O)CN3CCc4ccccc4C3)cc2)C1` (stereo not drawn) [Compound 196], the EC50 was 1000 to 10000 nM in test [1] and < 100 nM in test [2].

On to `CC(=O)N1CCC(Oc2ccc(C(=O)NCC(O)CN3CCc4ccccc4C3)cc2)C1` (stereo not drawn) [Compound 197], for which the figures for the EC50 in test [1] and in test [2] were 101 to 1000 nM and < 100 nM, respectively.

Regarding `CS(=O)(=O)N1CCC(Oc2ccc(C(=O)NCC(O)CN3CCc4ccccc4C3)cc2)C1` (stereo not drawn) [Compound 198], the EC50 in test [1] was 101 to 1000 nM; in test [2], < 100 nM.

On to `O=C(NCC(O)CN1CCc2ccccc2C1)c1ccc(OC2CCN(CC(F)(F)F)C2)cc1` (stereo not drawn) [Compound 199], for which the EC50 in test [1] was 1000 to 10000 nM; in test [2], < 100 nM.

Regarding `O=C(NC[C@H](O)CN1CCc2ccccc2C1)c1ccnc(NC2CCNCC2)c1` [Compound 200], the EC50 lay within 10000 to 50000 nM in test [1] and 101 to 1000 nM in test [2].

Regarding `O=C(NC[C@H](O)CN1CCc2ccccc2C1)c1ccnc(NC2CCNC2)c1` (stereo partly drawn) [Compound 201], the EC50 is 1000 to 10000 nM in test [1] and 101 to 1000 nM in test [2].

In the case of `CN1CCC(Oc2cc(C(=O)NC[C@H](O)CN3CCc4ccccc4C3)ccn2)CC1` [Compound 202], the EC50 in test [1] is 1000 to 10000 nM; in test [2] it was < 100 nM.

For the compound `O=C(NC[C@H](O)CN1CCc2ccccc2C1)c1ccnc(OC2CCN(CC(F)(F)F)CC2)c1` [Compound 203], the EC50 in test [1] is 101 to 1000 nM; in test [2], < 100 nM.

With `CS(=O)(=O)N1CCC(Oc2cc(C(=O)NC[C@H](O)CN3CCc4ccccc4C3)ccn2)CC1` [Compound 204], the EC50 in test [1] was 101 to 1000 nM; in test [2], < 100 nM.

Consider `CC(=O)N1CCC(Oc2cc(C(=O)NC[C@H](O)CN3CCc4ccccc4C3)ccn2)CC1` [Compound 205], for which the EC50 is 101 to 1000 nM in test [1] and < 100 nM in test [2].
